From US10729666B2, “Use of GABAA receptor reinforcing agent in preparation of sedative and anesthetic medicament” (Sichuan Haisco Pharmaceutical Co., Ltd., priority 2014, dated 2020) come the findings set out here.

The term LD50 denotes the dose expected to kill half of the subjects tested. For orientation: ED50 means the dose that gives a 50% effect, or the effect in half of the subjects.

The nature of series [1]: Righting reflex experiment on mice. The following applies: both, ICR, mouse, in vivo, iv. The protocol: (§1) LD5 (5% lethal dose): dose required to cause 5% of animals to die in a test.
(§2) If a normal animal was able to immediately body-right after being pushed over or made lying on its back, such a reflex was determined as the righting reflex. Otherwise, loss of the righting reflex and the time of loss were recorded, and a reflex recovery time was recorded when the animal restored the righting reflex. The period from finishing of drug administration until loss of the righting reflex was recorded as the anesthesia induction time, and the period from loss of the righting reflex until recovery of the righting reflex was recorded as the anesthesia maintenance time.
(§3) TI (therapeutic index, i.e. LD50/ED50), SI (safety index, i.e. LD5/ED95).
(§4) MTD (maximum tolerated dose): the maximum dose able to cause 100% of animals to loss the righting index without death.
(§5) Indicators such as median effective dose (ED50), median lethal dose (LD50), therapeutic index (TI, i.e. LD50/ED50), safety index (SI, i.e. LD5/ED95), anesthesia induction time, anesthesia maintenance time, and maximum tolerated dose (MTD) were used to evaluate the effect and safety of anesthesia. […] After adapting to the laboratory environment, laboratory animals were fasted for 12 hours. On the next day, administration was carried out at 10 mg/kg body weight. Upon intravenous injection, the time of loss of the righting reflex was recorded. The period from finishing of drug administration until loss of the righting reflex was recorded as the anesthesia induction time, and the period from loss of the righting reflex until recovery of the righting reflex was recorded as the anesthesia maintenance time. The anesthesia induction time and the anesthesia maintenance time were used to indicate how strong an anesthetic effect was. Meanwhile, the dose required to cause a 7-min anesthesia (HD7) was measured and used to evaluate relative efficacy.

The next series concerns ICR mice. In words: Righting reflex experiment on mice. The settings on record: for Anesthesia induction time / Anesthesia maintenance time / SI / TI / HD7: intravenous; for Anesthesia induction time: end of administration until loss of righting reflex; for Anesthesia maintenance time: loss until recovery of righting reflex; for ED50: Mus musculus, iv; for SI: safety index, LD5/ED95; for TI: therapeutic index, LD50/ED50; for HD7: dose required to cause a 7-min anesthesia. The protocol: as §1, §2, §3, §4, §5

The next series concerns healthy male volunteers. Nature of the series: Preliminary pharmacodynamic studies with healthy humans. Format: in vivo. The following applies: single intravenous injection of the emulsion injection. The protocol:
The subjects were fasted during the night for 6 hours or longer. The Emulsion injection of Compound 7 was administered by single intravenous injection. Groups 1 and 2 were administered by manual push injection for 2 to 3 seconds, and Groups 3-8 were administered by constant-rate pump injection for more than 1 min.
Primary indices include RASS and the tolerance to pain during injection (Verbal rating scale (VRS) was used to allow the researchers to know the pain degree of subjects); and secondary indices include cardiovascular indices and EEG (electroencephalogram) and BIS (Bispectral index) associated with the cognitive function recovery evaluation (QoR-40).

In series [1], `CC(C)c1cccc([C@@H](C)C2CC2)c1O` [Compound 8, 2-[(1S)-1-cyclopropylethyl]-6-isopropyl-phenol] yielded an LD50 of 43.6 mg/kg and an MTD of 20 mg/kg. In the series on ICR mice (ICR mice), the Anesthesia induction time is recorded as less than 15.0 s, the Anesthesia maintenance time was determined as 1031.6 s, the SI was 3.5 and the TI was found to be 7.5. The molecule also registered an ED50 with ICR mice of 5.8 mg/kg.

`CC(C)c1cccc(C(C)C2CC2)c1O` (racemic) [Compound 1, 2-(1-cyclopropylethyl)-6-isopropylphenol] registered an MTD in series [1] of 10 mg/kg. In the series with ICR mice (ICR mice), this molecule displayed an HD7 of 6.0 mg/kg, an Anesthesia induction time of less than 15.0 s, an Anesthesia maintenance time of 660.4 s and an SI of 1.7. In the series with ICR mice (ICR mice), the TI stood at 6.1. This molecule also showed an ED50 in the series with ICR mice of 3.7 mg/kg.

For `CC(C)c1cccc([C@H](C)C2CC2)c1O` [Compound 7, 2-[(1R)-1-cyclopropylethyl]-6-isopropyl-phenol], the “dose with which subjects started showing light anesthesia” value in the series with healthy male volunteers amounted to 0.128 mg/kg.

`C[C@@H](c1cccc([C@H](C)C2CC2)c1O)C1CC1` [Compound 10, 2,6-bis[(1R)-1-cyclopropylethyl]phenol] displayed an MTD in series [1] of 5 mg/kg. The same molecule had an LD50 with ICR mice (ICR mice, intravenous injection, solvent 10% DMSO, 15% solutol HS15, 75% saline) of 6.3 mg/kg. In the series with ICR mice (ICR mice), the Anesthesia maintenance time was 754.4 s, the SI came out at 3.8 and the TI is given as 4.1. In the series on ICR mice, this molecule displayed an ED50 of 1.5 mg/kg.

In turn, `C[C@H](c1cccc([C@H](C)C2CC2)c1O)C1CC1` [Compound 9, 2-[(1S)-1-cyclopropylethyl]-6-[(1R)-1-cyclopropylethyl]phenol] registered an HD7 with ICR mice (ICR mice) of 2.5 mg/kg.
